Assay results from patent US11225505B2, “Antimicrobial polymyxin derivative compounds” (MONASH UNIVERSITY, priority 2015, dated 2022).
≈ marks a conversion by molar mass, not a printed value. Where two headings read alike, the source gives them in different places. Where a SMILES comes first, the peptide text is derived from it. Bridges are numbered along the chain shown (N, C = ends). [ ]: non-standard residue; d: D form. The star is where a group is joined. Pyrrole2carbonyl(4,5-Br2) = O=C(c1cc(Br)c(Br)[nH]1)*; Benzothiazole(2-CH2CH2CO) = O=C(CCc1nc2ccccc2s1)*; Indazole3carbonyl = O=C(c1n[nH]c2ccccc12)*; X6 = Cn1c(C(=O)*)cc2cc(Cl)ccc21; X4 = O=C(c1cncc(C(F)(F)F)c1)*; X27 = O=C(c1sc2ccccc2c1Cl)*; X39 = O=C(c1noc2ccccc12)*; X7 = O=C(c1nc2ccccc2o1)*; Dab = NCC[C@H](N)C(=O)O; Abu = CC[C@H](N)C(=O)O; Dap = NC[C@H](N)C(=O)O

Assays:
Format in all cases: cell-based
[1] = tested on: Acinetobacter baumannii ATCC 17978
In short: (§1)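 Gram-negative bacteria susceptible to polymyxin were exposed to lipopeptide trifluoroacetates in CAMHB, and growth inhibition was read as the MIC by the CLSI microdilution protocol.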

[2] = tested on: Acinetobacter baumannii FADDI-AB034
In short: as §1

[3] = tested on: Enterobacter cloacae FADDI-EC001
In short: (§2)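 Values are MICs of the lipopeptide trifluoroacetic acid salts. Dilution series were set up in CAMHB as CLSI M100-S24 specifies.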

[4] = tested on: Enterobacter cloacae FADDI-EC003
In short: as §1

[5] = tested on: Enterobacter cloacae FADDI-EC006
In short: as §1

[6] = tested on: Klebsiella pneumoniae FADDI-KP022
In short: as §1

[7] = tested on: Klebsiella pneumoniae FADDI-KP032
In short: as §1

[8] = tested on: Klebsiella pneumoniae Kp BM1
In short: as §2

[9] = tested on: Pseudomonas aeruginosa ATCC 27853
In short: as §1

[10] = tested on: Pseudomonas aeruginosa FADDI-PA01
In short: as §1

[11] = tested on: Pseudomonas aeruginosa FADDI-PA022
In short: as §1

[12] = tested on: Pseudomonas aeruginosa FADDI-PA038
In short: as §1

[13] = tested on: Acinetobacter baumannii FADDI-AB030; assay: microbe, parasite or virus in culture
In short: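 Lipopeptide TFA salts tested against the multidrug-resistant clinical isolate by CLSI (M100-S24) broth microdilution in cation-adjusted Mueller-Hinton broth, with polymyxin B sulphate as control; MIC read.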

Row | SMILES | Minimum inhibitory concentration ([1]; ATCC 17978) | Minimum inhibitory concentration ([2]; FADDI-AB034) | Minimum inhibitory concentration ([3]; FADDI-EC001) | Minimum inhibitory concentration ([4]; FADDI-EC003) | Minimum inhibitory concentration ([5]; FADDI-EC006) | Minimum inhibitory concentration ([6]; FADDI-KP022) | Minimum inhibitory concentration ([7]; FADDI-KP032) | Minimum inhibitory concentration ([8]; Kp BM1) | Minimum inhibitory concentration ([9]; ATCC 27853) | Minimum inhibitory concentration ([10]; FADDI-) | Minimum inhibitory concentration ([11]; FADDI-PA022) | Minimum inhibitory concentration ([12]; FADDI-PA038) | Minimum inhibitory concentration ([13]; FADDI-AB030) | further results
1 | CC[C@@H]1NC(=O)[C@@H](CC(C)C)NC(=O)[C@H](CCN)NC(=O)[C@@H](NC(=O)[C@H](CN)NC(=O)[C@@H](NC(=O)[C@H](CCN)NC(=O)c2cc3cc(Cl)ccc3n2C)[C@@H](C)O)CCNC(=O)[C@H]([C@@H](C)O)NC(=O)[C@H](CCN)NC(=O)[C@H](CCN)NC1=O [Compound 58] (X6-[Dab]T[Dap][Dab][Dab][dL][Abu][Dab][Dab]T; lactam 4-C) | 0.25 µg/mL (≈ 0.212 µM) | 0.5 µg/mL (≈ 0.424 µM) | 1 µg/mL (≈ 0.848 µM) | <0.125 µg/mL | 0.5 µg/mL (≈ 0.424 µM) | <0.125 µg/mL | 0.5 µg/mL (≈ 0.424 µM) | 0.25 µg/mL (≈ 0.212 µM) | 0.5 µg/mL (≈ 0.424 µM) | 0.5 µg/mL (≈ 0.424 µM) | 0.5 µg/mL (≈ 0.424 µM) | 2 µg/mL (≈ 1.7 µM) | 0.25 µg/mL (≈ 0.212 µM) | 
2 | CC[C@@H]1NC(=O)[C@@H](CC(C)C)NC(=O)[C@H](CCN)NC(=O)[C@@H](NC(=O)[C@H](CN)NC(=O)[C@@H](NC(=O)[C@H](CCN)NC(=O)c2nc3ccccc3o2)[C@@H](C)O)CCNC(=O)[C@H]([C@@H](C)O)NC(=O)[C@H](CCN)NC(=O)[C@H](CCN)NC1=O [Compound 74] (X7-[Dab]T[Dap][Dab][Dab][dL][Abu][Dab][Dab]T; lactam 4-C) | 1 µg/mL (≈ 0.883 µM) | 1 µg/mL (≈ 0.883 µM) | <0.125 µg/mL | <0.125 µg/mL | 0.5 µg/mL (≈ 0.442 µM) | <0.125 µg/mL | 0.25 µg/mL (≈ 0.221 µM) | 0.25 µg/mL (≈ 0.221 µM) | 0.25 µg/mL (≈ 0.221 µM) | 0.5 µg/mL (≈ 0.442 µM) | 0.25 µg/mL (≈ 0.221 µM) | 0.5 µg/mL (≈ 0.442 µM) | 0.5 µg/mL (≈ 0.442 µM) | 
3 | CC[C@@H]1NC(=O)[C@@H](CC(C)C)NC(=O)[C@H](CCN)NC(=O)[C@@H](NC(=O)[C@H](CN)NC(=O)[C@@H](NC(=O)[C@H](CCN)NC(=O)CCc2nc3ccccc3s2)[C@@H](C)O)CCNC(=O)[C@H]([C@@H](C)O)NC(=O)[C@H](CCN)NC(=O)[C@H](CCN)NC1=O [Compound 72] ({Benzothiazole(2-CH2CH2CO)}-[Dab]T[Dap][Dab][Dab][dL][Abu][Dab][Dab]T; lactam 4-C) | 0.5 µg/mL (≈ 0.425 µM) | 0.5 µg/mL (≈ 0.425 µM) | <0.125 µg/mL | <0.125 µg/mL | <0.125 µg/mL | <0.125 µg/mL | <0.125 µg/mL | <0.125 µg/mL | 0.5 µg/mL (≈ 0.425 µM) | 0.5 µg/mL (≈ 0.425 µM) | 0.5 µg/mL (≈ 0.425 µM) | 0.5 µg/mL (≈ 0.425 µM) | 0.5 µg/mL (≈ 0.425 µM) | 
4 | CC[C@@H]1NC(=O)[C@@H](CC(C)C)NC(=O)[C@H](CCN)NC(=O)[C@@H](NC(=O)[C@H](CN)NC(=O)[C@@H](NC(=O)[C@H](CCN)NC(=O)c2n[nH]c3ccccc23)[C@@H](C)O)CCNC(=O)[C@H]([C@@H](C)O)NC(=O)[C@H](CCN)NC(=O)[C@H](CCN)NC1=O [Compound 54] (Indazole3carbonyl-[Dab]T[Dap][Dab][Dab][dL][Abu][Dab][Dab]T; lactam 4-C) |  |  |  |  |  |  |  |  |  |  |  |  |  | Minimum inhibitory concentration ([1]; A. baumannii ATCC 17978, CAMHB broth microdilution): 1 µg/mL (≈ 0.884 µM); Minimum inhibitory concentration ([2]; A. baumannii FADDI-AB034, CAMHB broth microdilution): 0.5 µg/mL (≈ 0.442 µM); Minimum inhibitory concentration ([3]; E. cloacae FADDI-EC001, CAMHB broth microdilution): <0.125 µg/mL; Minimum inhibitory concentration ([4]; E. cloacae FADDI-EC003, CAMHB broth microdilution): 0.5 µg/mL (≈ 0.442 µM); Minimum inhibitory concentration ([5]; E. cloacae FADDI-EC006, CAMHB broth microdilution): 0.5 µg/mL (≈ 0.442 µM); Minimum inhibitory concentration ([6]; K. pneumoniae FADDI-KP022, CAMHB broth microdilution): <0.125 µg/mL; Minimum inhibitory concentration ([7]; K. pneumoniae FADDI-KP032, CAMHB broth microdilution): <0.125 µg/mL; Minimum inhibitory concentration ([8]; K. pneumoniae Kp BM1, CAMHB broth microdilution): <0.125 µg/mL; Minimum inhibitory concentration ([9]; P. aeruginosa ATCC 27853, CAMHB broth microdilution): 0.5 µg/mL (≈ 0.442 µM); Minimum inhibitory concentration ([10]; P. aeruginosa FADDI-PA01, CAMHB broth microdilution): 0.25 µg/mL (≈ 0.221 µM); Minimum inhibitory concentration ([11]; P. aeruginosa FADDI-PA022, CAMHB broth microdilution): 0.5 µg/mL (≈ 0.442 µM); Minimum inhibitory concentration ([12]; P. aeruginosa FADDI-PA038, CAMHB broth microdilution): 0.25 µg/mL (≈ 0.221 µM); Minimum inhibitory concentration ([13]; A. baumannii FADDI-AB030, CAMHB broth microdilution): 0.25 µg/mL (≈ 0.221 µM)
5 | CC[C@@H]1NC(=O)[C@@H](CC(C)C)NC(=O)[C@H](CCN)NC(=O)[C@@H](NC(=O)[C@H](CN)NC(=O)[C@@H](NC(=O)[C@H](CCN)NC(=O)c2noc3ccccc23)[C@@H](C)O)CCNC(=O)[C@H]([C@@H](C)O)NC(=O)[C@H](CCN)NC(=O)[C@H](CCN)NC1=O [Compound 75] (X39-[Dab]T[Dap][Dab][Dab][dL][Abu][Dab][Dab]T; lactam 4-C) | 1 µg/mL (≈ 0.883 µM) | 0.5 µg/mL (≈ 0.442 µM) | <0.125 µg/mL | <0.125 µg/mL | 1 µg/mL (≈ 0.883 µM) | <0.125 µg/mL | 0.25 µg/mL (≈ 0.221 µM) | 0.25 µg/mL (≈ 0.221 µM) | 0.5 µg/mL (≈ 0.442 µM) | 0.5 µg/mL (≈ 0.442 µM) | 0.5 µg/mL (≈ 0.442 µM) | 1 µg/mL (≈ 0.883 µM) | 0.5 µg/mL (≈ 0.442 µM) | 
6 | CC(C)C[C@H]1NC(=O)[C@H](CCN)NC(=O)[C@@H](NC(=O)[C@H](CN)NC(=O)[C@@H](NC(=O)[C@H](CCN)NC(=O)c2sc3ccccc3c2Cl)[C@@H](C)O)CCNC(=O)[C@H]([C@@H](C)O)NC(=O)[C@H](CCN)NC(=O)[C@H](CCN)NC(=O)[C@H]([C@@H](C)O)NC1=O [Compound 68] (X27-[Dab]T[Dap][Dab][Dab][dL]T[Dab][Dab]T; lactam 4-C) | 0.25 µg/mL (≈ 0.209 µM) | <0.125 µg/mL | <0.125 µg/mL | <0.125 µg/mL | 0.25 µg/mL (≈ 0.209 µM) | <0.125 µg/mL | 0.25 µg/mL (≈ 0.209 µM) | 0.25 µg/mL (≈ 0.209 µM) | 0.25 µg/mL (≈ 0.209 µM) | 0.5 µg/mL (≈ 0.417 µM) | 0.25 µg/mL (≈ 0.209 µM) | 1 µg/mL (≈ 0.835 µM) | <0.125 µg/mL | 
7 | CC[C@@H]1NC(=O)[C@@H](CC(C)C)NC(=O)[C@H](CCN)NC(=O)[C@@H](NC(=O)[C@H](CN)NC(=O)[C@@H](NC(=O)[C@H](CCN)NC(=O)c2cncc(C(F)(F)F)c2)[C@@H](C)O)CCNC(=O)[C@H]([C@@H](C)O)NC(=O)[C@H](CCN)NC(=O)[C@H](CCN)NC1=O [Compound 20] (X4-[Dab]T[Dap][Dab][Dab][dL][Abu][Dab][Dab]T; lactam 4-C) | 2 µg/mL (≈ 1.72 µM) | 0.5 µg/mL (≈ 0.431 µM) | 0.5 µg/mL (≈ 0.431 µM) | 4 µg/mL (≈ 3.45 µM) | 0.5 µg/mL (≈ 0.431 µM) | <0.125 µg/mL | 0.5 µg/mL (≈ 0.431 µM) | 0.25 µg/mL (≈ 0.215 µM) | 0.5 µg/mL (≈ 0.431 µM) | 0.5 µg/mL (≈ 0.431 µM) | 0.5 µg/mL (≈ 0.431 µM) | 0.5 µg/mL (≈ 0.431 µM) | 0.5 µg/mL (≈ 0.431 µM) | 
8 | CC[C@@H]1NC(=O)[C@@H](CC(C)C)NC(=O)[C@H](CCN)NC(=O)[C@@H](NC(=O)[C@H](CN)NC(=O)[C@@H](NC(=O)[C@H](CCN)NC(=O)c2cc(Br)c(Br)[nH]2)[C@@H](C)O)CCNC(=O)[C@H]([C@@H](C)O)NC(=O)[C@H](CCN)NC(=O)[C@H](CCN)NC1=O [Compound 77] ({Pyrrole2carbonyl(4,5-Br2)}-[Dab]T[Dap][Dab][Dab][dL][Abu][Dab][Dab]T; lactam 4-C) | 0.5 µg/mL (≈ 0.404 µM) | 0.25 µg/mL (≈ 0.202 µM) | 0.25 µg/mL (≈ 0.202 µM) | 0.25 µg/mL (≈ 0.202 µM) | <0.125 µg/mL | <0.125 µg/mL | 0.25 µg/mL (≈ 0.202 µM) | <0.125 µg/mL | 0.25 µg/mL (≈ 0.202 µM) | 0.25 µg/mL (≈ 0.202 µM) | 0.5 µg/mL (≈ 0.404 µM) | 1 µg/mL (≈ 0.808 µM) | 0.25 µg/mL (≈ 0.202 µM) | 
